According to the supplement of paper PMC10307832:

How the values were obtained:
Assay in all cases: relative viability (nuclei count vs DMSO), 5 days (fraction); higher = more cells survive
[1] = compound: C1CSC2=C(C(=O)N1)SC3=C2C=C(C=C3)O [kb NB 142-70] + CC(C)C[C@H](NC(=O)[C@H](Cc1ccccc1)NC(=O)c1cnccn1)B(O)O [Bortezomib] (partner 0.002 µM)
Outline: (§1)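 Relative viability is defined as nuclei in treated wells over nuclei in vehicle wells. Duplicate plates were run and medians reported. Lung cancer cell lines in 1536-well plates were dosed by pin tool one day after seeding, with one drug or with a fixed anchor-drug dose plus five library-drug doses (not always all listed) in √10 steps, and nuclei were counted after 5 days.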

kb NB 142-70 + Olaparib = compound: C1CSC2=C(C(=O)N1)SC3=C2C=C(C=C3)O [kb NB 142-70] + O=C(c1cc(Cc2n[nH]c(=O)c3ccccc23)ccc1F)N1CCN(C(=O)C2CC2)CC1 [Olaparib] (partner 8 µM)
Outline: as §1

[2] = compound: NCC(=O)Nc1ccc(-n2nc(C(F)(F)F)cc2-c2ccc3c(ccc4ccccc43)c2)cc1 + CC1(C)CCC(c2ccc(Cl)cc2)=C(CN2CCN(c3ccc(C(=O)NS(=O)(=O)c4ccc(N[C@H](CCN5CCOCC5)CSc5ccccc5)c(S(=O)(=O)C(F)(F)F)c4)cc3)CC2)C1 [Navitoclax] (partner 0.5 µM)
Outline: as §1

[3] = compound: NCC(=O)Nc1ccc(-n2nc(C(F)(F)F)cc2-c2ccc3c(ccc4ccccc43)c2)cc1 + Cc1nc(Nc2ncc(C(=O)Nc3c(C)cccc3Cl)s2)cc(N2CCN(CCO)CC2)n1 [Dasatinib] (partner 0.075 µM)
Outline: as §1

Cell Line UMC-11 has a relative viability ([1]; first compound 0.1 µM) of 0.667, a relative viability ([1]; first compound 1 µM) of 0.806 and a relative viability ([1]; first compound 3.162 µM) of 0.703. The relative viability (kb NB 142-70 + Olaparib; first compound 0.1 µM) was 0.309, the relative viability (kb NB 142-70 + Olaparib; first compound 1 µM) was 0.315 and the relative viability (kb NB 142-70 + Olaparib; first compound 3.162 µM) was 0.199. For the same cell line, the relative viability ([2]; first compound 0.02 µM) was 0.303, the relative viability ([2]; first compound 0.06325 µM) was 0.349 and the relative viability ([2]; first compound 0.2 µM) was 0.35. It also gave a relative viability ([2]; first compound 0.6325 µM) of 0.304, a relative viability ([2]; first compound 2 µM) of 0.328 and a relative viability ([3]; first compound 0.02 µM) of 0.426. The relative viability ([3]; first compound 0.06325 µM) was 0.416, the relative viability ([3]; first compound 0.2 µM) was 0.466 and the relative viability ([3]; first compound 0.6325 µM) was 0.432. For the same cell line, the relative viability ([3]; first compound 2 µM) was 0.42.
